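Where inhibition never reached the appropriate level, the endpoint shown equals the highest concentration tested. Otherwise, values were interpolated linearly from a five-concentration, 48-hour dose response in 96-well plates. At the GI50, growth is halved.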 Active and inactive are the calls of the source. No stated cut-off is given here; in the data, active = GI50 up to about 1.1 µM and inactive = higher.
How the values were obtained:
Assay in all cases: growth of human tumour cells (NCI), 48 h
[1] = system: 786-0
[2] = system: A498
[3] = system: A549
[4] = system: ACHN
[5] = system: BT-549
[6] = system: CAKI-1
[7] = system: CCRF-CEM
[8] = system: COLO 205
[9] = system: DU-145
[10] = system: EKVX
[11] = system: HCC 2998
[12] = system: HCT-116
[13] = system: HCT-15
[14] = system: HL-60
[15] = system: HOP-62
[16] = system: HOP-92
[17] = system: HT-29
[18] = system: Hs-578T
[19] = system: IGROV-1
[20] = system: K562
[21] = system: KM12
[22] = system: LOX IMVI
[23] = system: M14
[24] = system: MCF7
[25] = system: MDA-MB-231
[26] = system: MDA-MB-435
[27] = system: MDA-N
[28] = system: MOLT-4
[29] = system: Malme-3M
[30] = system: NCI-H226
[31] = system: NCI-H23
[32] = system: NCI-H460
[33] = system: NCI-H522
[34] = system: NCI/ADR-RES
[35] = system: OVCAR-3
[36] = system: OVCAR-4
[37] = system: OVCAR-5
[38] = system: OVCAR-8
[39] = system: PC-3
[40] = system: RPMI-8226
[41] = system: RXF 393
[42] = system: SF-268
[43] = system: SF-295
[44] = system: SF-539
[45] = system: SK-MEL-28
[46] = system: SK-MEL-2
[47] = system: SK-MEL-5
[48] = system: SK-OV-3
[49] = system: SN12C
[50] = system: SNB-19
[51] = system: SNB-75
[52] = system: SR
[53] = system: SW-620
[54] = system: T47D
[55] = system: TK-10
[56] = system: U-251
[57] = system: UACC-257
[58] = system: UACC-62
[59] = system: UO-31

CCN(CC)/[N+]([O-])=N/OCOC
GI50 [1]: > 100 µM (inactive)
GI50 [2]: > 100 µM (inactive)
GI50 [3]: > 100 µM (inactive)
GI50 [4]: > 100 µM (inactive)
GI50 [5]: > 100 µM (inactive)
GI50 [6]: > 100 µM (inactive)
GI50 [7]: > 100 µM (inactive)
GI50 [8]: > 100 µM (inactive)
GI50 [9]: > 100 µM (inactive)
GI50 [10]: > 100 µM (inactive)
GI50 [11]: > 100 µM (inactive)
GI50 [12]: > 100 µM (inactive)
GI50 [13]: > 100 µM
GI50 [14]: > 100 µM (inactive)
GI50 [15]: > 100 µM (inactive)
GI50 [16]: > 100 µM (inactive)
GI50 [17]: > 100 µM (inactive)
GI50 [18]: > 100 µM (inactive)
GI50 [19]: > 100 µM (inactive)
GI50 [20]: > 100 µM (inactive)
GI50 [21]: > 100 µM (inactive)
GI50 [22]: > 100 µM (inactive)
GI50 [23]: > 100 µM (inactive)
GI50 [24]: > 100 µM (inactive)
GI50 [25]: > 100 µM (inactive)
GI50 [26]: > 100 µM (inactive)
GI50 [27]: > 100 µM (inactive)
GI50 [28]: > 100 µM (inactive)
GI50 [29]: > 100 µM (inactive)
GI50 [30]: > 100 µM (inactive)
GI50 [31]: > 100 µM (inactive)
GI50 [32]: > 100 µM (inactive)
GI50 [33]: > 100 µM (inactive)
GI50 [34]: > 100 µM (inactive)
GI50 [35]: > 100 µM (inactive)
GI50 [36]: > 100 µM (inactive)
GI50 [37]: > 100 µM (inactive)
GI50 [38]: > 100 µM (inactive)
GI50 [39]: > 100 µM (inactive)
GI50 [40]: > 100 µM (inactive)
GI50 [41]: > 100 µM (inactive)
GI50 [42]: > 100 µM (inactive)
GI50 [43]: > 100 µM (inactive)
GI50 [44]: > 100 µM (inactive)
GI50 [45]: > 100 µM (inactive)
GI50 [46]: > 100 µM (inactive)
GI50 [47]: > 100 µM (inactive)
GI50 [48]: > 100 µM (inactive)
GI50 [49]: > 100 µM (inactive)
GI50 [50]: > 100 µM (inactive)
GI50 [51]: > 100 µM (inactive)
GI50 [52]: > 100 µM (inactive)
GI50 [53]: > 100 µM (inactive)
GI50 [54]: > 100 µM (inactive)
GI50 [55]: > 100 µM (inactive)
GI50 [56]: > 100 µM (inactive)
GI50 [57]: > 100 µM (inactive)
GI50 [58]: > 100 µM (inactive)
GI50 [59]: > 100 µM (inactive)

CCCCC/C(=N\c1[nH]nnc1C(N)=O)OCC
GI50 [1]: > 100 µM (inactive)
GI50 [2]: > 100 µM (inactive)
GI50 [3]: > 100 µM (inactive)
GI50 [4]: > 100 µM (inactive)
GI50 [5]: > 100 µM (inactive)
GI50 [6]: > 100 µM (inactive)
GI50 [7]: > 100 µM (inactive)
GI50 [8]: > 100 µM (inactive)
GI50 [9]: > 100 µM (inactive)
GI50 [10]: > 100 µM (inactive)
GI50 [11]: > 100 µM (inactive)
GI50 [12]: > 100 µM (inactive)
GI50 [13]: > 100 µM
GI50 [14]: > 100 µM (inactive)
GI50 [15]: > 100 µM (inactive)
GI50 [16]: 26.2 µM (inactive)
GI50 [17]: > 100 µM (inactive)
GI50 [18]: > 100 µM (inactive)
GI50 [19]: > 100 µM (inactive)
GI50 [20]: > 100 µM (inactive)
GI50 [21]: > 100 µM (inactive)
GI50 [22]: > 100 µM (inactive)
GI50 [23]: > 100 µM (inactive)
GI50 [24]: > 100 µM (inactive)
GI50 [25]: > 100 µM (inactive)
GI50 [26]: > 100 µM (inactive)
GI50 [27]: > 100 µM (inactive)
GI50 [28]: > 100 µM (inactive)
GI50 [29]: > 100 µM (inactive)
GI50 [30]: > 100 µM (inactive)
GI50 [31]: > 100 µM (inactive)
GI50 [32]: > 100 µM (inactive)
GI50 [33]: > 100 µM (inactive)
GI50 [34]: > 100 µM (inactive)
GI50 [35]: > 100 µM (inactive)
GI50 [36]: > 100 µM (inactive)
GI50 [37]: > 100 µM (inactive)
GI50 [38]: > 100 µM (inactive)
GI50 [39]: > 100 µM (inactive)
GI50 [40]: > 100 µM (inactive)
GI50 [41]: > 100 µM (inactive)
GI50 [42]: > 100 µM (inactive)
GI50 [43]: > 100 µM (inactive)
GI50 [44]: > 100 µM (inactive)
GI50 [45]: > 100 µM (inactive)
GI50 [46]: > 100 µM (inactive)
GI50 [47]: > 100 µM (inactive)
GI50 [48]: > 100 µM (inactive)
GI50 [49]: > 100 µM (inactive)
GI50 [50]: > 100 µM (inactive)
GI50 [51]: > 100 µM (inactive)
GI50 [52]: > 100 µM (inactive)
GI50 [53]: > 100 µM (inactive)
GI50 [54]: > 100 µM (inactive)
GI50 [55]: > 100 µM (inactive)
GI50 [56]: > 100 µM (inactive)
GI50 [57]: > 100 µM (inactive)
GI50 [58]: > 100 µM (inactive)
GI50 [59]: > 100 µM (inactive)

CCCCCCCCCCC1OC([C@@H](O)CC[C@H](O)C2CC[C@@H](CCCCCCCC(O)CC3=CC(C)OC3=O)O2)CCC1O (stereo not given in full)
GI50 [1]: 11.5 µM (inactive)
GI50 [2]: > 14.9 µM (inactive)
GI50 [3]: 5.21 µM (inactive)
GI50 [4]: 6.38 µM (inactive)
GI50 [5]: 12.4 µM (inactive)
GI50 [6]: 11.7 µM (inactive)
GI50 [7]: 5.97 µM (inactive)
GI50 [8]: 6.85 µM (inactive)
GI50 [9]: 14.6 µM (inactive)
GI50 [10]: 2.09 µM (inactive)
GI50 [11]: 8 µM (inactive)
GI50 [12]: 0.148 µM (active)
GI50 [13]: 10.1 µM
GI50 [14]: 2.74 µM (inactive)
GI50 [15]: 4.53 µM (inactive)
GI50 [16]: 8.95 µM (inactive)
GI50 [17]: 5.4 µM (inactive)
GI50 [18]: 2.68 µM (inactive)
GI50 [19]: 2.61 µM (inactive)
GI50 [20]: 0.204 µM (active)
GI50 [21]: 2.58 µM (inactive)
GI50 [22]: 1.27 µM (inactive)
GI50 [23]: 8.04 µM (inactive)
GI50 [24]: 6.79 µM (inactive)
GI50 [25]: > 16.3 µM (inactive)
GI50 [26]: 7.24 µM (inactive)
GI50 [27]: 3.57 µM (inactive)
GI50 [29]: 14 µM (inactive)
GI50 [30]: 14 µM (inactive)
GI50 [31]: 0.363 µM (active)
GI50 [32]: 1.52 µM (inactive)
GI50 [33]: 5.89 µM (inactive)
GI50 [34]: 1.5 µM (inactive)
GI50 [35]: 5.64 µM (inactive)
GI50 [36]: 8.61 µM (inactive)
GI50 [37]: > 15 µM (inactive)
GI50 [38]: 3.79 µM (inactive)
GI50 [39]: 5.94 µM (inactive)
GI50 [40]: 3.59 µM (inactive)
GI50 [41]: > 9.77 µM (inactive)
GI50 [42]: 2.35 µM (inactive)
GI50 [43]: 0.708 µM (active)
GI50 [44]: 14.4 µM (inactive)
GI50 [45]: > 17.9 µM (inactive)
GI50 [46]: 9.08 µM (inactive)
GI50 [47]: 0.115 µM (active)
GI50 [48]: 7.67 µM (inactive)
GI50 [49]: 9.12 µM (inactive)
GI50 [50]: 9.46 µM (inactive)
GI50 [51]: 3.41 µM (inactive)
GI50 [52]: 0.0025 µM (active)
GI50 [53]: > 17.9 µM (inactive)
GI50 [54]: 7.71 µM (inactive)
GI50 [55]: 11.7 µM (inactive)
GI50 [56]: 14.4 µM (inactive)
GI50 [57]: 0.622 µM (active)
GI50 [58]: 4.72 µM (inactive)
GI50 [59]: 4.41 µM (inactive)

O=C(N/N=C/c1ccc([N+](=O)[O-])cc1)Nc1ccc(C(=O)O)cc1
GI50 [1]: 39.1 µM (inactive)
GI50 [2]: 20.2 µM (inactive)
GI50 [3]: 35.3 µM (inactive)
GI50 [4]: 26.7 µM (inactive)
GI50 [5]: 35.2 µM (inactive)
GI50 [6]: 28.2 µM (inactive)
GI50 [7]: 30.6 µM (inactive)
GI50 [8]: 23.1 µM (inactive)
GI50 [9]: 29.9 µM (inactive)
GI50 [10]: 23.1 µM (inactive)
GI50 [11]: 20.2 µM (inactive)
GI50 [12]: 22.3 µM (inactive)
GI50 [13]: 25.5 µM
GI50 [14]: 37.2 µM (inactive)
GI50 [15]: 21.6 µM (inactive)
GI50 [16]: 16.9 µM (inactive)
GI50 [17]: 23.8 µM (inactive)
GI50 [18]: 45.4 µM (inactive)
GI50 [19]: 33.1 µM (inactive)
GI50 [20]: 13.3 µM (inactive)
GI50 [21]: 27.7 µM (inactive)
GI50 [22]: 31.3 µM (inactive)
GI50 [23]: 37.4 µM (inactive)
GI50 [24]: 27.4 µM (inactive)
GI50 [25]: 28.6 µM (inactive)
GI50 [26]: 29 µM (inactive)
GI50 [27]: 30.5 µM (inactive)
GI50 [28]: 22.9 µM (inactive)
GI50 [29]: 53 µM (inactive)
GI50 [30]: 22.2 µM (inactive)
GI50 [31]: 23.2 µM (inactive)
GI50 [32]: 26.5 µM (inactive)
GI50 [33]: 7.85 µM (inactive)
GI50 [34]: 27 µM (inactive)
GI50 [35]: 4.54 µM (inactive)
GI50 [36]: 21.2 µM (inactive)
GI50 [37]: 40.6 µM (inactive)
GI50 [38]: 28.6 µM (inactive)
GI50 [39]: 32.1 µM (inactive)
GI50 [40]: 18.7 µM (inactive)
GI50 [41]: 26.1 µM (inactive)
GI50 [42]: 44 µM (inactive)
GI50 [43]: 17.4 µM (inactive)
GI50 [44]: 49.3 µM (inactive)
GI50 [45]: 41.7 µM (inactive)
GI50 [46]: 25 µM (inactive)
GI50 [47]: 16.3 µM (inactive)
GI50 [48]: 21.3 µM (inactive)
GI50 [49]: 29.9 µM (inactive)
GI50 [50]: 38.6 µM (inactive)
GI50 [51]: 46.3 µM (inactive)
GI50 [52]: 43.5 µM (inactive)
GI50 [53]: 40.9 µM (inactive)
GI50 [54]: 11 µM (inactive)
GI50 [55]: 34.4 µM (inactive)
GI50 [56]: 28.2 µM (inactive)
GI50 [57]: 28.4 µM (inactive)
GI50 [58]: 26.4 µM (inactive)
GI50 [59]: 22.1 µM (inactive)
